# Experimental data published in ChEMBL document CHEMBL3885881, “DrugMatrix”.
# Organism: Rattus norvegicus
# Experiment: DrugMatrix - Regimen: Daily Repeat
# Format: toxicity, organism-based, Sprague-Dawley
# Parameters: regimen Daily Repeat, gender Male, age 6-8 weeks
# Details: in vivo, po, route oral GAVAGE, […]; for ABSOLUTE BASOPHIL / ABSOLUTE EOSINOPHIL / ABSOLUTE LYMPHOCYTE / ABSOLUTE MONOCYTE / ABSOLUTE SEGMENTED NEUTROPHIL / BASOPHIL / EOSINOPHIL / ERYTHROCYTE COUNT / HEMATOCRIT / HEMOGLOBIN / LEUKOCYTE COUNT / LYMPHOCYTE / MEAN CORPUSCULAR HEMOGLOBIN / MEAN CORPUSCULAR HEMOGLOBIN CONCENTRATION / MEAN CORPUSCULAR VOLUME / MONOCYTE / NEUTROPHIL / NUCLEATED RED BLOOD CELLS / PLATELET COUNT: tissue Blood; for ALANINE AMINOTRANSFERASE / ALBUMIN / ALKALINE PHOSPHATASE / ASPARTATE AMINOTRANSFERASE / BLOOD UREA NITROGEN / CARBON DIOXIDE / CHLORIDE / CHOLESTEROL / CREATINE PHOSPHOKINASE / CREATININE / GLUCOSE / LACTATE DEHYDROGENASE / LIPASE / PHOSPHORUS / POTASSIUM / SODIUM / TOTAL BILIRUBIN / TOTAL PROTEIN / URIC ACID: tissue Plasma
# [1] = 40 mg/kg, 72 h, dose level Low, time 3 day
# [2] = 40 mg/kg, 120 h, dose level Low, time 5 day
# [3] = 444 mg/kg, 72 h, dose level High, time 3 day
# [4] = 444 mg/kg, 120 h, dose level High, time 5 day
structure (smiles),measurement,setting,value
COC(=O)c1ccccc1O [METHYL SALICYLATE],ABSOLUTE BASOPHIL,[1],0 CELLS/uL
same,ABSOLUTE EOSINOPHIL,[1],96.67 CELLS/uL
same,ABSOLUTE LYMPHOCYTE,[1],12979.67 CELLS/uL
same,ABSOLUTE MONOCYTE,[1],290.67 CELLS/uL
same,ABSOLUTE SEGMENTED NEUTROPHIL,[1],1366.33 CELLS/uL
same,BASOPHIL,[1],0%
same,EOSINOPHIL,[1],0.67%
same,ERYTHROCYTE COUNT,[1],5.47 x10E6/uL
same,HEMATOCRIT,[1],34.27%
same,HEMOGLOBIN,[1],13.3 G/DL
same,LEUKOCYTE COUNT,[1],14.73 x10E3/uL
same,LYMPHOCYTE,[1],88%
same,MEAN CORPUSCULAR HEMOGLOBIN,[1],24.33 pg
same,MEAN CORPUSCULAR HEMOGLOBIN CONCENTRATION,[1],38.83 G/DL
same,MEAN CORPUSCULAR VOLUME,[1],62.67 fL
same,MONOCYTE,[1],2%
same,NEUTROPHIL,[1],9.33%
same,NUCLEATED RED BLOOD CELLS,[1],0 /100WBC
same,PLATELET COUNT,[1],1233.67 x10E3/uL
same,ALANINE AMINOTRANSFERASE,[1],69.33 u/L
same,ALBUMIN,[1],3.93 G/DL
same,ALKALINE PHOSPHATASE,[1],411 u/L
same,ASPARTATE AMINOTRANSFERASE,[1],90 u/L
same,BLOOD UREA NITROGEN,[1],10.67 mg/dL
same,CARBON DIOXIDE,[1],25 mmol/L
same,CHLORIDE,[1],101 MEQ/L
same,CHOLESTEROL,[1],68 mg/dL
same,CREATINE PHOSPHOKINASE,[1],276 u/L
same,CREATININE,[1],0.17 mg/dL
same,GLUCOSE,[1],149.67 mg/dL
same,LACTATE DEHYDROGENASE,[1],146.67 u/L
same,LIPASE,[1],12 u/L
same,PHOSPHORUS,[1],11.03 mg/dL
same,POTASSIUM,[1],6.55 MEQ/L
same,SODIUM,[1],142.03 MEQ/L
same,TOTAL BILIRUBIN,[1],0.2 mg/dL
same,TOTAL PROTEIN,[1],5.6 G/DL
same,URIC ACID,[1],1.37 mg/dL
same,ABSOLUTE BASOPHIL,[2],0 CELLS/uL
same,ABSOLUTE EOSINOPHIL,[2],46 CELLS/uL
same,ABSOLUTE LYMPHOCYTE,[2],12546.67 CELLS/uL
same,ABSOLUTE MONOCYTE,[2],258.67 CELLS/uL
same,ABSOLUTE SEGMENTED NEUTROPHIL,[2],1848.67 CELLS/uL
same,BASOPHIL,[2],0%
same,EOSINOPHIL,[2],0.33%
same,ERYTHROCYTE COUNT,[2],5.18 x10E6/uL
same,HEMATOCRIT,[2],34.3%
same,HEMOGLOBIN,[2],13.77 G/DL
same,LEUKOCYTE COUNT,[2],14.7 x10E3/uL
same,LYMPHOCYTE,[2],85.67%
same,MEAN CORPUSCULAR HEMOGLOBIN,[2],26.7 pg
same,MEAN CORPUSCULAR HEMOGLOBIN CONCENTRATION,[2],40.13 G/DL
same,MEAN CORPUSCULAR VOLUME,[2],66.53 fL
same,MONOCYTE,[2],1.67%
same,NEUTROPHIL,[2],12.33%
same,NUCLEATED RED BLOOD CELLS,[2],0 /100WBC
same,PLATELET COUNT,[2],1368.67 x10E3/uL
same,ALANINE AMINOTRANSFERASE,[2],59 u/L
same,ALBUMIN,[2],4.17 G/DL
same,ALKALINE PHOSPHATASE,[2],468.33 u/L
same,ASPARTATE AMINOTRANSFERASE,[2],97.67 u/L
same,BLOOD UREA NITROGEN,[2],11 mg/dL
same,CARBON DIOXIDE,[2],34.67 mmol/L
same,CHLORIDE,[2],100.67 MEQ/L
same,CHOLESTEROL,[2],60.33 mg/dL
same,CREATINE PHOSPHOKINASE,[2],364.67 u/L
same,CREATININE,[2],0.16 mg/dL
same,GLUCOSE,[2],144 mg/dL
same,LACTATE DEHYDROGENASE,[2],490.67 u/L
same,LIPASE,[2],11 u/L
same,PHOSPHORUS,[2],10.47 mg/dL
same,POTASSIUM,[2],6.4 MEQ/L
same,SODIUM,[2],143.33 MEQ/L
same,TOTAL BILIRUBIN,[2],0.2 mg/dL
same,TOTAL PROTEIN,[2],5.73 G/DL
same,URIC ACID,[2],1.43 mg/dL
same,ABSOLUTE BASOPHIL,[3],0 CELLS/uL
same,ABSOLUTE EOSINOPHIL,[3],0 CELLS/uL
same,ABSOLUTE LYMPHOCYTE,[3],15083 CELLS/uL
same,ABSOLUTE MONOCYTE,[3],294 CELLS/uL
same,ABSOLUTE SEGMENTED NEUTROPHIL,[3],1723 CELLS/uL
same,BASOPHIL,[3],0%
same,EOSINOPHIL,[3],0%
same,ERYTHROCYTE COUNT,[3],6.27 x10E6/uL
same,HEMATOCRIT,[3],39.33%
same,HEMOGLOBIN,[3],15.27 G/DL
same,LEUKOCYTE COUNT,[3],17.1 x10E3/uL
same,LYMPHOCYTE,[3],88.33%
same,MEAN CORPUSCULAR HEMOGLOBIN,[3],24.37 pg
same,MEAN CORPUSCULAR HEMOGLOBIN CONCENTRATION,[3],38.83 G/DL
same,MEAN CORPUSCULAR VOLUME,[3],62.8 fL
same,MONOCYTE,[3],1.67%
same,NEUTROPHIL,[3],10%
same,NUCLEATED RED BLOOD CELLS,[3],0 /100WBC
same,PLATELET COUNT,[3],1017 x10E3/uL
same,ALANINE AMINOTRANSFERASE,[3],109 u/L
same,ALBUMIN,[3],4.4 G/DL
same,ALKALINE PHOSPHATASE,[3],443.33 u/L
same,ASPARTATE AMINOTRANSFERASE,[3],121 u/L
same,BLOOD UREA NITROGEN,[3],11.33 mg/dL
same,CARBON DIOXIDE,[3],27.67 mmol/L
same,CHLORIDE,[3],99.33 MEQ/L
same,CHOLESTEROL,[3],62.33 mg/dL
same,CREATINE PHOSPHOKINASE,[3],782 u/L
same,CREATININE,[3],0.19 mg/dL
same,GLUCOSE,[3],148.33 mg/dL
same,LACTATE DEHYDROGENASE,[3],151.33 u/L
same,LIPASE,[3],11.67 u/L
same,PHOSPHORUS,[3],13.93 mg/dL
same,POTASSIUM,[3],5.57 MEQ/L
same,SODIUM,[3],143.77 MEQ/L
same,TOTAL BILIRUBIN,[3],0.2 mg/dL
same,TOTAL PROTEIN,[3],5.73 G/DL
same,URIC ACID,[3],1 mg/dL
same,ABSOLUTE BASOPHIL,[4],0 CELLS/uL
same,ABSOLUTE EOSINOPHIL,[4],54.67 CELLS/uL
same,ABSOLUTE LYMPHOCYTE,[4],13302.33 CELLS/uL
same,ABSOLUTE MONOCYTE,[4],273 CELLS/uL
same,ABSOLUTE SEGMENTED NEUTROPHIL,[4],1603.33 CELLS/uL
same,BASOPHIL,[4],0%
same,EOSINOPHIL,[4],0.33%
same,ERYTHROCYTE COUNT,[4],6.16 x10E6/uL
same,HEMATOCRIT,[4],38.17%
same,HEMOGLOBIN,[4],14.63 G/DL
same,LEUKOCYTE COUNT,[4],15.23 x10E3/uL
same,LYMPHOCYTE,[4],87.67%
same,MEAN CORPUSCULAR HEMOGLOBIN,[4],23.73 pg
same,MEAN CORPUSCULAR HEMOGLOBIN CONCENTRATION,[4],38.4 G/DL
same,MEAN CORPUSCULAR VOLUME,[4],61.93 fL
same,MONOCYTE,[4],2%
same,NEUTROPHIL,[4],10%
same,NUCLEATED RED BLOOD CELLS,[4],0.33 /100WBC
same,PLATELET COUNT,[4],914.67 x10E3/uL
same,ALANINE AMINOTRANSFERASE,[4],125.67 u/L
same,ALBUMIN,[4],4.53 G/DL
same,ALKALINE PHOSPHATASE,[4],515 u/L
same,ASPARTATE AMINOTRANSFERASE,[4],127.67 u/L
same,BLOOD UREA NITROGEN,[4],18.67 mg/dL
same,CARBON DIOXIDE,[4],29 mmol/L
same,CHLORIDE,[4],103 MEQ/L
same,CHOLESTEROL,[4],65.33 mg/dL
same,CREATINE PHOSPHOKINASE,[4],548 u/L
same,CREATININE,[4],0.23 mg/dL
same,GLUCOSE,[4],140.67 mg/dL
same,LACTATE DEHYDROGENASE,[4],324.33 u/L
same,LIPASE,[4],11 u/L
same,PHOSPHORUS,[4],13.1 mg/dL
same,POTASSIUM,[4],5.71 MEQ/L
same,SODIUM,[4],146.3 MEQ/L
same,TOTAL BILIRUBIN,[4],0.27 mg/dL
same,TOTAL PROTEIN,[4],5.97 G/DL
same,URIC ACID,[4],0.9 mg/dL
